Reference: patent US20220389013A1, “PYRIDOPYRIMIDINONE COMPOUNDS AND APPLICATIONS THEREOF” (BeBetter Med Inc., priority 2020, published 2022)
Counter-ions that a name gives are not always drawn.

Key:
[1] = Caco-2 cell transmembrane transport experiment; details: human; for efflux ratio at 90 min, 10 μM: Caco-2, pH 7.4; for Papp B→A at 90 min, 10 μM: basolateral to apical
Description: (§2) In this experiment, a monolayer of Caco-2 cells was used to assess drug penetration. […] The apparent permeability coefficient from apical to basolateral (Papp A-B) and the basolateral to apical permeability coefficient (Papp B-A) of compounds represent the ability of the compound to be transported in both directions, respectively.
(§3) Apparent permeability coefficient (Papp)=(the volume of the receiver chamber/the filter surface area×culture time))×(the drug concentration of receiver chamber at the end of culture/(the drug concentration of donor chamber at the initial culture×dilution factor)
(§4) In this experiment, Millipore cell culture plates (PSHT 010 R5): membrane area=0.7 cm^2, recipient side volume=0.8 mL (A-to-B) or 0.4 mL (B-to-A), incubation time=90 minutes.

H23 (KRAS G12C) = test: Tumor cell proliferation inhibition assay (CellTiter-Glo), H23; format: cell-based, Human; details: 10% fetal bovine serum
Protocol: The H358, H23 or MIA-Paca2 cells were digested, centrifuged and resuspended, and the cell density was measured with a Scepter automatic cell counter. Cells were diluted to a solution containing 44,000 cells per milliliter, then added to a 96-well culture plate at 90 μL per well. The 96-well plate was placed in a 5% CO2 incubator at 37° C., and after the cells were cultured for 24 hours, different concentrations of the compounds to be tested were added. Cells were incubated with compounds in the presence of 10% fetal bovine serum for 72 hours. The inhibition of cell growth was assessed by measuring ATP levels by using the CellTiter-Glo Luminescent Cell Viability Assay Kit (details in manufacturer's instructions). In brief, 30 μL of CellTiter-Glo reagent was added to each well and the plate was shaken for 10 minutes to induce cell lysis, then the fluorescent signal was detected and recorded with a Fluoroskan Ascent FL (Thermo). Maximum signal values were obtained from cells treated with DMSO for 72 hours. Minimum signal values were obtained with medium only (zero cell number). Inhibition rate %=(maximum signal value-compound signal value)/(maximum signal value-minimum signal value)×100%. Data were processed by using Graphpad prism5 software. IC50 values were calculated using a sigmoidal dose-response curve.

MIA-Paca2 (KRAS G12C) = test: Tumor cell proliferation inhibition assay (CellTiter-Glo), MIA-Paca2; format: cell-based, Human; details: 10% fetal bovine serum
Method in brief: (§1)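 Growth was read as ATP by CellTiter-Glo luminescence, with inhibition normalised to DMSO (max) and medium-only (min) wells. IC50 came from sigmoidal dose-response fits.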

H358 (KRAS G12C) = test: Tumor cell proliferation inhibition assay (CellTiter-Glo), H358; format: cell-based, Human; details: 10% fetal bovine serum
Method in brief: as §1

[2] = Pharmacokinetic (PK) experiment in rats by gavage; format: in vivo; details: rat, plasma, po, male SD rats, 20 mg/kg; for AUC(0-t): read-out: AUC0-24
Protocol: Male SD rats, weighing 180-250 g, were fasted overnight before the test and stomach administrated with the test compound at 20 mg/kg. 15 minutes, 30 minutes, and 1, 2, 4, 6, 8, and 24 hours after administration, blood was taken from the end of the tail of the fracture, about 0.3 mL per time point, then placed in a centrifuge tube containing K2-EDTA, and centrifuged (2000 g, 10 min, at 4° C.). Plasma was collected and stored in an ultra-low temperature freezer at −80° C. 50 μL of plasma samples were vortexed with 135 μL of acetonitrile (containing 1 μg/mL internal standard) for protein precipitation and centrifuged, and the supernatant was collected for LC-MS/MS analysis.
After the rats oral administrated with the Pyridopyrimidinone compounds provided by the present disclosure, the absorption is good, and the blood exposure is relatively high. […] Cmax refers to the maximum plasma concentration, T1/2 is the half-life, AUC0-24 refers to the area under the 0-24 hour time-concentration curve, and AUC0-inf refers to the area under the 0-Inf time-concentration curve.

KRAS-G12C/SOS1 = target: T1, KRAS-G12C/SOS1 (Homo sapiens, UniProt P01116, G12C); test: HTRF KRAS-G12C/SOS1 binding assay; details: 2 hours room temperature
T1 construct: purchased Cisbio #63ADK000CB16PEG
Protocol: 2) Diluted the compound to be tested with diluent into 10× stock solution, starting from a concentration of 10000 nM, diluting in 4-fold gradient and a total of 6 concentration gradients.
After incubated at room temperature for 15 minutes, added pre-mixed 5 uL of anti-Tag1-Tb^3+ and 5 uL of anti-Tag2-XL665. Sealed the plate and incubated at room temperature for 2 hours.
Data were processed by using Graphpad prism software.

in vitro = details: human; for efflux ratio at 90 min, 10 μM: Caco-2, pH 7.4
Description: as §2, §3, §4

[3] = Caco-2, pH 7.4, Papp A-B Sample_01, 10 μM, pH 7.4, 37° C., 90 min, apical to basolateral
[4] = Caco-2, pH 7.4, Papp A-B Sample_02, 10 μM, pH 7.4, 37° C., 90 min, apical to basolateral
[5] = Caco-2, pH 7.4, Papp A-B mean value, 10 μM, pH 7.4, 37° C., 90 min, apical to basolateral
[6] = Caco-2, pH 7.4, Papp B-A Sample_01, 10 μM, pH 7.4, 37° C., 90 min
[7] = Caco-2, pH 7.4, Papp B-A Sample_02, 10 μM, pH 7.4, 37° C., 90 min
[8] = Caco-2, pH 7.4, Papp B-A mean value, 10 μM, pH 7.4, 37° C., 90 min
[9] = Caco-2, pH 7.4, apparent permeability coefficient Papp A-B, Caco-2
[10] = Caco-2, pH 7.4, Papp A-B Sample_01
[11] = Caco-2, pH 7.4, Papp A-B Sample_02
[12] = Caco-2, pH 7.4, Papp A-B mean value
[13] = Caco-2, pH 7.4, Papp B-A Sample_01
[14] = Caco-2, pH 7.4, Papp B-A Sample_02
[15] = Caco-2, pH 7.4, Papp B-A mean value

T1 sequence (P01116 1-188 isoform P01116-2 G12C): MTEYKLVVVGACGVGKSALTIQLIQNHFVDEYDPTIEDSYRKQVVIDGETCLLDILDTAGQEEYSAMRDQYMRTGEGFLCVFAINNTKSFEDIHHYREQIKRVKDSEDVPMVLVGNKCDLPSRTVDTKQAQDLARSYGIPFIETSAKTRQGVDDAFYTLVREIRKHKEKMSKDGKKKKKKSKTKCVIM

Row | SMILES | IC50 (MIA-Paca2 (KRAS G12C); 72 hours) [nM] | IC50 (H358 (KRAS G12C); 72 hours) [nM] | AUC(0-inf) [2] [ng·h/mL] | Cmax [2] [ng/mL] | Tmax [2] [h] | half-life [2] [h] | AUC(0-t) [2] [ng·h/mL] | IC50 (KRAS-G12C/SOS1) [nM] | IC50 (H23 (KRAS G12C); Homo sapiens, 72 h) [nM] | IC50 (MIA-Paca2 (KRAS G12C); Homo sapiens, MIA PaCa-2, 72 h) [nM] | IC50 (H358 (KRAS G12C); Homo sapiens, NCI-H358, 72 h) [nM] | also measured
1 | C=CC(=O)N1CCN(c2nc(=O)n(-c3c(C)ccnc3C(C)C)c3nc(-c4c(F)ccc5ccoc45)c(F)cc23)[C@@H](C)C1 (single isomer, unassigned) [Compound 70-1] | 10 to 50 | 10 to 50 | 7910 | 3530 | 1 | 2.77 | 7890 | 50 to 100 | – | – | – | efflux ratio at 90 min, 10 μM [1]: 1.19; Papp A→B at 90 min, 10 μM [1, 3]: 19 ×10⁻⁶ cm/s; Papp A→B at 90 min, 10 μM [1, 4]: 18.8 ×10⁻⁶ cm/s; Papp A→B at 90 min, 10 μM [1, 5]: 18.9 ×10⁻⁶ cm/s; Papp B→A at 90 min, 10 μM [1, 6]: 21.1 ×10⁻⁶ cm/s; Papp B→A at 90 min, 10 μM [1, 7]: 23.7 ×10⁻⁶ cm/s; Papp B→A at 90 min, 10 μM [1, 8]: 22.4 ×10⁻⁶ cm/s; Papp A→B at 90 min, 10 μM [1, 9]: > 10 ×10⁻⁶ cm/s; IC50 (H23 (KRAS G12C); 72 hours): < 10 nM
2 | C=CC(=O)N1CCN(c2nc(=O)n(-c3c(C)ccnc3C(C)C)c3nc(-c4c(F)ccc5ccoc45)c(F)cc23)[C@@H](C)C1 (single isomer, unassigned) [Compound 70-2] | > 500 | 100 to 500 | – | – | – | – | – | > 1000 | – | – | – | IC50 (H23 (KRAS G12C); 72 hours): 50 to 100 nM
3 | C=CC(=O)N1CCN(c2nc(=O)n(-c3c(C)ccnc3C(C)C)c3nc(-c4c(F)ccc5ccoc45)c(Cl)cc23)[C@@H](C)C1 (single isomer, unassigned) [Compound 73-2] | 100 to 500 | 10 to 50 | – | – | – | – | – | 100 to 500 | – | – | – | IC50 (H23 (KRAS G12C); 72 hours): < 10 nM
4 | C=CC(=O)N1CCN(c2nc(=O)n(-c3c(C)ccnc3C(C)C)c3nc(-c4c(F)c(F)cc5ccoc45)c(F)cc23)[C@@H](C)C1 (single isomer, unassigned) [Compound 74-1] | – | – | 6220 | 3180 | 0.83 | 5.3 | 6200 | 50 to 100 | < 10 | 10 to 50 | 10 to 50 | –
5 | C=CC(=O)N1C[C@H](C)N(c2nc(=O)n(-c3c(C)ccnc3C(C)C)c3nc(-c4c(F)c(F)cc5ccoc45)c(F)cc23)C[C@H]1C (single isomer, unassigned) [Compound 91-1] | – | – | 9710 | 2970 | 1.17 | 2.72 | 9680 | 100 to 500 | < 10 | 10 to 50 | 10 to 50 | melting point: 156 to 158 °C
6 | C=CC(=O)N1CCN(c2nc(=O)n(-c3c(C)ccnc3C(C)C)c3nc(-c4c(F)c(F)cc5ccoc45)c(Cl)cc23)[C@@H](C)C1 (single isomer, unassigned) [Compound 103-1] | – | – | 6240 | 2700 | 1 | 6.03 | 6190 | < 50 | < 10 | < 10 | < 10 | efflux ratio at 90 min, 10 μM [1]: 2.08; Papp A→B at 90 min, 10 μM [1, 3]: 12.1 ×10⁻⁶ cm/s; Papp A→B at 90 min, 10 μM [1, 4]: 10.7 ×10⁻⁶ cm/s; Papp A→B at 90 min, 10 μM [1, 5]: 11.4 ×10⁻⁶ cm/s; Papp B→A at 90 min, 10 μM [1, 6]: 19.7 ×10⁻⁶ cm/s; Papp B→A at 90 min, 10 μM [1, 7]: 27.8 ×10⁻⁶ cm/s; Papp B→A at 90 min, 10 μM [1, 8]: 23.7 ×10⁻⁶ cm/s; Papp A→B at 90 min, 10 μM [1, 9]: > 10 ×10⁻⁶ cm/s
7 | C=CC(=O)N1C[C@H](C)N(c2nc(=O)n(-c3c(C)ccnc3C(C)C)c3nc(-c4c(F)c(F)cc5ccoc45)c(Cl)cc23)C[C@H]1C (single isomer, unassigned) [Compound 104-1] | – | – | 10500 | 2590 | 1 | 4.35 | 10300 | < 50 | < 10 | 10 to 50 | < 10 | efflux ratio at 90 min, 10 μM [1]: 1.92; Papp A→B at 90 min, 10 μM [1, 3]: 11.2 ×10⁻⁶ cm/s; Papp A→B at 90 min, 10 μM [1, 4]: 10.4 ×10⁻⁶ cm/s; Papp A→B at 90 min, 10 μM [1, 5]: 10.8 ×10⁻⁶ cm/s; Papp B→A at 90 min, 10 μM [1, 6]: 22.1 ×10⁻⁶ cm/s; Papp B→A at 90 min, 10 μM [1, 7]: 19.5 ×10⁻⁶ cm/s; Papp B→A at 90 min, 10 μM [1, 8]: 20.8 ×10⁻⁶ cm/s; Papp A→B at 90 min, 10 μM [1, 9]: > 10 ×10⁻⁶ cm/s
8 | C=CC(=O)N1CCN(c2nc(=O)n(-c3c(C)ccnc3C(C)C)c3nc(-c4c(F)ccc5ccoc45)c(Cl)cc23)[C@@H](C)C1 [Compound 73, 4-((S)-4-acryloyl-2-methylpiperazin-1-yl)-6-chloro-7-(6-fluorobenzofuran-7-yl)-1-(2-isopropyl-4-methylpyridin-3-yl)pyrido[2,3-d]pyrimidin-2(1H)-one] | – | – | 8640 | 3360 | 1 | 3.97 | 8630 | < 50 | < 10 | < 10 | < 10 | –
9 | C=CC(=O)N1C[C@H](C)N(c2nc(=O)n(-c3c(C)ccnc3C(C)C)c3nc(-c4c(F)ccc5ccoc45)c(Cl)cc23)C[C@H]1C [Compound 90, 4-((2S,5R)-4-acryloyl-2,5-dimethylpiperazin-1-yl)-6-chloro-7-(6-fluorobenzofuran-7-yl)-1-(2-isopropyl-4-methylpyridin-3-yl)pyrido[2,3-d]pyrimidin-2(1H)-one] | 10 to 50 | < 10 | 20400 | 5610 | 1 | 5.54 | 20100 | 50 to 100 | < 10 | – | – | melting point: 167 to 169 °C
10 | C=CC(=O)N1CCN(c2nc(=O)n(-c3c(C(C)C)ccnc3C(C)C)c3nc(-c4c(F)ccc5ccoc45)c(Cl)cc23)[C@@H](C)C1 [Compound 122, 4-((S)-4-acryloyl-2-methylpiperazin-1-yl)-6-chloro-1-(2,4-diisopropylpyridin-3-yl)-7-(6-fluorobenzofuran-7-yl)pyrido[2,3-d]pyrimidin-2(1H)-one] | – | – | 6000 | 1630 | 1.67 | 3.64 | 5990 | < 50 | – | < 10 | < 10 | melting point: 162 to 173 °C
11 | CC[C@H]1OC(=O)[C@H](C)[C@@H](O[C@H]2C[C@@](C)(OC)[C@@H](O)[C@H](C)O2)[C@H](C)[C@@H](O[C@@H]2O[C@H](C)C[C@H](N(C)C)[C@H]2O)[C@](C)(O)C[C@@H](C)C(=O)[C@H](C)[C@@H](O)[C@]1(C)O [Erythromycin] | – | – | – | – | – | – | – | – | – | – | – | efflux ratio at 90 min, 10 μM (in vitro): 30.6; Papp A→B at 90 min, 10 μM (in vitro; [10]): 0.46 ×10⁻⁶ cm/s; Papp A→B at 90 min, 10 μM (in vitro; [11]): 0.5 ×10⁻⁶ cm/s; Papp A→B at 90 min, 10 μM (in vitro; [12]): 0.48 ×10⁻⁶ cm/s; Papp B→A at 90 min, 10 μM (in vitro; [13]): 13.8 ×10⁻⁶ cm/s; Papp B→A at 90 min, 10 μM (in vitro; [14]): 15.5 ×10⁻⁶ cm/s; Papp B→A at 90 min, 10 μM (in vitro; [15]): 14.7 ×10⁻⁶ cm/s
12 | COCCc1ccc(OCC(O)CNC(C)C)cc1 (stereo not drawn) [Metoprolol Tartrate] | – | – | – | – | – | – | – | – | – | – | – | efflux ratio at 90 min, 10 μM (in vitro): 0.93; Papp A→B at 90 min, 10 μM (in vitro; [10]): 33.3 ×10⁻⁶ cm/s; Papp A→B at 90 min, 10 μM (in vitro; [11]): 36.4 ×10⁻⁶ cm/s; Papp A→B at 90 min, 10 μM (in vitro; [12]): 34.8 ×10⁻⁶ cm/s; Papp B→A at 90 min, 10 μM (in vitro; [13]): 29.4 ×10⁻⁶ cm/s; Papp B→A at 90 min, 10 μM (in vitro; [14]): 35.4 ×10⁻⁶ cm/s; Papp B→A at 90 min, 10 μM (in vitro; [15]): 32.4 ×10⁻⁶ cm/s
